Reference: the supplement of paper PMC8617591

How the values were obtained:
[1] = tested on: Mycobacterium tuberculosis Erdman (autoluminescent); test: total FIC50 (Loewe) at 50% inhibition, three-drug combination (log2); higher = more antagonistic
Method: (§1)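 DiaMOND equipotent three-drug combination dose responses (10 doses, 1.5- or 2-fold spacing, centred on IC90) against autoluminescent M. tuberculosis Erdman in 8 in vitro models. Read-out is OD600, or luminescence for the intracellular and dormancy models, normalised to untreated wells. Hill-fit Einf, AUC25 and GRinf are potency metrics; FIC50 and FIC90 are total Loewe fractional inhibitory concentrations as log2 (negative = synergy).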

[2] = tested on: Mycobacterium tuberculosis Erdman (autoluminescent); test: total FIC90 (Loewe) at 90% inhibition, three-drug combination (log2); higher = more antagonistic
Method: as §1

[3] = tested on: Mycobacterium tuberculosis Erdman (autoluminescent); test: Einf, fitted maximum growth inhibition of three-drug combination (fraction); higher = stronger maximal inhibition
Method: as §1

[4] = tested on: Mycobacterium tuberculosis Erdman (autoluminescent); test: AUC25, normalised area under dose response up to IC25 (three-drug combination) (fraction (0-1)); higher = more potent at low dose
Method: as §1

[5] = tested on: Mycobacterium tuberculosis Erdman (autoluminescent); test: GRinf, maximum normalised growth rate inhibition (three-drug combination) (unitless (-1 to 1)); higher = less effect (negative = killing)
Method: as §1

CC(C)/N=c1\cc2n(-c3ccc(Cl)cc3)c3ccccc3nc-2cc1Nc1ccc(Cl)cc1 [clofazimine] + COc1c(N2C[C@@H]3CCCN[C@@H]3C2)c(F)cc2c(=O)c(C(=O)O)cn(C3CC3)c12 [moxifloxacin] + NC(=O)c1cnccn1 [pyrazinamide]
Details	AUC25, [4]	Einf, [3]	GRinf, [5]	total FIC50, [1]	total FIC90, [2]
in vitro model: acidic pH 5.7, time point: constant (~7 days, model-specific)	0.0994	0.605	-0.618	0.273	–
in vitro model: acidic pH 5.7, time point: terminal (~4-5 doublings, model-specific)	0.0958	0.951	-0.261	-0.216	-0.195
in vitro model: intracellular J774, time point: constant = terminal	–	0.975	-0.333	–	0.42

Details	AUC25, [4]	Einf, [3]	GRinf, [5]	total FIC50, [1]	total FIC90, [2]
in vitro model: butyrate, time point: constant (~7 days, model-specific)	0.127	0.968	-0.193	-0.173	0.847
in vitro model: butyrate, time point: terminal (~4-5 doublings, model-specific)	0.0926	0.973	-0.0738	-0.0902	0.342
in vitro model: cholesterol 0.05 mM, time point: constant (~7 days, model-specific)	0.129	0.646	-0.114	–	–
in vitro model: cholesterol 0.05 mM, time point: terminal (~4-5 doublings, model-specific)	0.112	0.927	-0.137	0.91	–
in vitro model: cholesterol-high 0.2 mM, time point: constant (~7 days, model-specific)	0.108	0.882	-0.3	0.275	–
in vitro model: cholesterol-high 0.2 mM, time point: terminal (~4-5 doublings, model-specific)	0.0989	0.998	-0.761	0.347	0.272
in vitro model: dormancy (butyrate + nitrate, low O2), time point: constant (~7 days, model-specific)	0.113	0.919	0.162	-0.332	-0.522
in vitro model: dormancy (butyrate + nitrate, low O2), time point: terminal (~4-5 doublings, model-specific)	0.0767	0.992	-0.202	0.182	0.297
in vitro model: standard 7H9 glycerol, time point: constant = terminal	0.111	0.974	-0.232	–	–
in vitro model: valerate, time point: constant (~7 days, model-specific)	0.122	0.852	-0.0384	0.546	–
in vitro model: valerate, time point: terminal (~4-5 doublings, model-specific)	0.067	0.914	0.0776	0.292	0.85

CC(C)/N=c1\cc2n(-c3ccc(Cl)cc3)c3ccccc3nc-2cc1Nc1ccc(Cl)cc1 [clofazimine] + COc1c(N2C[C@@H]3CCCN[C@@H]3C2)c(F)cc2c(=O)c(C(=O)O)cn(C3CC3)c12 [moxifloxacin] + O=[N+]([O-])c1cn2c(n1)OC[C@@H](OCc1ccc(OC(F)(F)F)cc1)C2 [pretomanid]
Details	AUC25, [4]	Einf, [3]	GRinf, [5]	total FIC50, [1]	total FIC90, [2]
in vitro model: acidic pH 5.7, time point: constant (~7 days, model-specific)	0.111	0.66	-0.331	0.779	–
in vitro model: acidic pH 5.7, time point: terminal (~4-5 doublings, model-specific)	0.0647	0.93	-0.186	0.34	0.287
in vitro model: intracellular J774, time point: constant = terminal	–	0.981	-0.328	–	-0.136

Details	AUC25, [4]	Einf, [3]	GRinf, [5]	total FIC50, [1]	total FIC90, [2]
in vitro model: butyrate, time point: constant (~7 days, model-specific)	0.114	0.945	-0.41	0.567	2.06
in vitro model: butyrate, time point: terminal (~4-5 doublings, model-specific)	0.101	0.989	-0.286	0.561	1.3
in vitro model: cholesterol 0.05 mM, time point: constant (~7 days, model-specific)	0.112	0.707	-0.152	0.31	–
in vitro model: cholesterol 0.05 mM, time point: terminal (~4-5 doublings, model-specific)	0.104	0.908	-0.0989	0.933	0.0471
in vitro model: cholesterol-high 0.2 mM, time point: constant (~7 days, model-specific)	0.108	0.921	-0.386	0.526	2.16
in vitro model: cholesterol-high 0.2 mM, time point: terminal (~4-5 doublings, model-specific)	0.111	1	-0.905	0.181	0.651
in vitro model: dormancy (butyrate + nitrate, low O2), time point: constant (~7 days, model-specific)	0.096	0.958	0.184	0.193	-0.0601
in vitro model: dormancy (butyrate + nitrate, low O2), time point: terminal (~4-5 doublings, model-specific)	0.0701	0.981	-0.138	0.461	0.601
in vitro model: standard 7H9 glycerol, time point: constant = terminal	0.112	0.974	-0.306	-0.121	0.463
in vitro model: valerate, time point: constant (~7 days, model-specific)	0.117	0.881	-0.0836	0.973	–
in vitro model: valerate, time point: terminal (~4-5 doublings, model-specific)	0.0939	0.934	-0.0367	0.371	-0.0804

CC(C)/N=c1\cc2n(-c3ccc(Cl)cc3)c3ccccc3nc-2cc1Nc1ccc(Cl)cc1 [clofazimine] + NC(=O)c1cnccn1 [pyrazinamide] + CO[C@H]1/C=C/O[C@@]2(C)Oc3c(C)c(O)c4c(O)c(c(/C=N/N5CCN(C6CCCC6)CC5)c(O)c4c3C2=O)NC(=O)/C(C)=C\C=C\[C@H](C)[C@H](O)[C@@H](C)[C@@H](O)[C@@H](C)[C@H](OC(C)=O)[C@@H]1C [rifapentine]
Details	AUC25, [4]	Einf, [3]	GRinf, [5]	total FIC50, [1]	total FIC90, [2]
in vitro model: acidic pH 5.7, time point: constant (~7 days, model-specific)	0.0912	0.872	-0.0882	-0.248	–
in vitro model: acidic pH 5.7, time point: terminal (~4-5 doublings, model-specific)	0.0866	0.992	-0.166	-0.185	-0.282
in vitro model: intracellular J774, time point: constant = terminal	–	0.987	-0.31	–	-0.162

Details	AUC25, [4]	Einf, [3]	GRinf, [5]	total FIC50, [1]	total FIC90, [2]
in vitro model: butyrate, time point: constant (~7 days, model-specific)	0.112	0.934	-0.137	0.135	0.657
in vitro model: butyrate, time point: terminal (~4-5 doublings, model-specific)	0.0906	0.969	-0.0833	0.161	0.364
in vitro model: cholesterol 0.05 mM, time point: constant (~7 days, model-specific)	0.142	0.621	-0.201	–	–
in vitro model: cholesterol 0.05 mM, time point: terminal (~4-5 doublings, model-specific)	0.111	0.899	-0.27	0.876	–
in vitro model: cholesterol-high 0.2 mM, time point: constant (~7 days, model-specific)	0.121	0.905	-0.547	0.527	–
in vitro model: cholesterol-high 0.2 mM, time point: terminal (~4-5 doublings, model-specific)	0.0971	0.984	-0.634	0.828	0.832
in vitro model: dormancy (butyrate + nitrate, low O2), time point: constant (~7 days, model-specific)	0.0828	0.929	0.0852	-0.285	-1.22
in vitro model: dormancy (butyrate + nitrate, low O2), time point: terminal (~4-5 doublings, model-specific)	0.0573	0.993	-0.269	-0.0992	0.0246
in vitro model: standard 7H9 glycerol, time point: constant = terminal	0.115	0.936	-0.0744	-0.0271	–
in vitro model: valerate, time point: constant (~7 days, model-specific)	0.118	0.911	-0.101	0.0622	–
in vitro model: valerate, time point: terminal (~4-5 doublings, model-specific)	0.0526	0.901	0.0624	0.391	1.33
